The results in this text go back to article PMC6599804, “N^ɛ-acetyl lysine derivatives with zinc binding groups as novel HDAC inhibitors” (Royal Society Open Science, 2019).

Read-outs that look alike come from different tables or passages of the source. Bounds are passed on as bounds.

Data set [1] concerns HDACs (HeLa nuclear extract). Kind of data set: HDAC deacetylation inhibition assay, HeLa nuclear extract with BOC-Ac-Lys-AMC substrate. In kind it is biochemical, human. As to the method: With these N^ɛ-acetyl lysine derivatives in hand (schemes 1–3), we then did the pilot screening for general HDAC inhibitory activity at a compound's concentration of 100 µM. All tested compounds were subjected to the inhibition assay against the HDAC deacetylation reaction by using a HeLa nuclear extract as a source of HDACs and BOC-Ac-Lys-AMC as a substrate.
HDACS inhibition assay in vitro
In vitro HDACs inhibition assays were conducted as previously described. In brief, 4 μL of […]
(1μL), then fluorogenic substrate Boc-Lys(acetyl)-AMC (100 μM) and Buffer A (50 mM Tis-HCl pH=8.0, 150 mM NaCl, 30 mM KCl, 10 mM MgCl2) were added. After incubation at 37℃ for 1h, […]
(§1) And then incubation at 37℃ for 1h, the mixture was stopped by the addition of 50 μL of Buffer B (200mM HCl/300 mM Acetic acid), fluorescence intensity was measured using a microplate reader at excitation and emission wavelengths of 360 nm and 460 nm. The inhibition ratios were calculated from the fluorescence intensity readings of tested wells relative to those of control wells, […]
regression analysis of the concentration/inhibition data. All experiments were done in triplicate. […]

Data set [2] relates to HDACⅠ. Kind of data set: HDAC subtype selectivity assay with subtype substrate, HDACⅠ. Conditions: 1μM; Hela nuclear extract; substrate of corresponding subtype. In kind it is biochemical, human.
Description: (§2) against both tumor cells and normal cells, then calculate and compare their selective index.” […]
(§3) of Supporting Information.
(§4) Reponses to Reviewer 2’s comments
(§5) Reviewer 2 is also very positive about the manuscript. We thank the reviewer for the helpful comments and careful reading of the manuscript. Our changes and/or responses are detailed below.
(§6) Comment 1: “Should add some discussion about whether the synthesized compounds intend to be pan- or specific- HDAC inhibitors.”
(§7) S1 of Supporting Information.
(§8) Comment 2: “ The cellular data is just described for the acetylation level of tubulin which is only relevant […]
as §1
(§9) The rate of cell survival under the action of test substances was evaluated by an improved MTS assay as previously described. […]
(§10) 48 hours 5ul of MTS reagent solution was added into each well and the cells were incubated for another 4 hours at 37℃ under 5% CO2 environment. The absorbance was measured at 490 nm in […]

Data set [3] deals with HDACⅡa. The experiment in a line: HDAC subtype selectivity assay with subtype substrate, HDACⅡa. Type of data set: biochemical, human. Conditions: 1μM; Hela nuclear extract; substrate of corresponding subtype.
Description: as §2, §3, §4, §5, §6, §7, §8, §1, §9, §10

The target of data set [4] is T1, HDAC8 (Homo sapiens, UniProt Q9BY41).
T1 construct: Hela nuclear extract; endogenous in cells; host or cells: HeLa nuclear extract
T1 sequence (Q9BY41 1-377): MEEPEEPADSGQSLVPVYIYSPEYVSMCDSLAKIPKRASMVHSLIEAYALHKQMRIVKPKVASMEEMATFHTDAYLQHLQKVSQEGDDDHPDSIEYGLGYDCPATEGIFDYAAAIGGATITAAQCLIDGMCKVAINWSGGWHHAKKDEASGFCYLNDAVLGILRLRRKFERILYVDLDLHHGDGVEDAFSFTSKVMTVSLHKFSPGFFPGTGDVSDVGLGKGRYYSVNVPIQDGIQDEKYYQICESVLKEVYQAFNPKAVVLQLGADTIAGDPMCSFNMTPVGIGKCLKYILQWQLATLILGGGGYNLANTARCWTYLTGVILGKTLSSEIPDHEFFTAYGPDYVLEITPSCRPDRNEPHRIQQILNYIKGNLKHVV
Kind of data set: HDAC subtype selectivity assay with subtype substrate, HDAC8. Type of data set: biochemical. Conditions: 1μM; Hela nuclear extract; substrate of corresponding subtype; read-out: HDAC Inhibition (%) HDAC8.

Data set [5] relates to cellular HDACs in K562 cells. Kind of data set: Western blotting of acetylation levels of histone H3 and α-tubulin in K562 cells. Type of data set: cell-based, human. The note with it: 50, 100 and 200 µM for 24 h. As to the method:
(§11) Therefore, hydroxamic acid 18c was engaged in western blotting analysis to evaluate the acetylation levels of histone H3 and α-tubulin.
(§12) Figure 3. […]
(§13) a Microplate to determine the cell viability. The absorbance was directly proportional to the number of viable cells. All experiments were done in triplicate. […]
(§14) calculate and compare their selective index.
(§15) Respectively, A549 and K562 cells were harvested with three different concentrations of […]
(§16) DMEM with 10% FBS (fetal bovine serum) for 24 hours. DMSO was used as the control. Later the cell pellets were collected by centrifuge at 1000 rpm for 5 minutes and then washed by ice-cold PBS (phosphate-buffered saline) twice. The PBS solution was drained and the cell pellets were re-suspended with ice-cold cell lysate buffer (50 mM Tis-HCl PH=7.4, 150 mM NaCl, 1 mM EDTA, 10% glycerin, 1% tirtion 100 and protease inhibitors cocktail) and Vortex blending five times for 30 seconds each over a period of 30 minutes kept on ice. The samples were later centrifuged at 12,000×g for 10 minutes at 4 °C and the supernatants in each tube were collected and placed in a fresh tube kept on ice. BCA (bicinchoninic acid) assay was used to determine the total protein amount. […]
(§17) were removed by washing and a secondary antibody conjugated to an enzyme, a fluorophore was used for detection. The detected signal from the protein: antibody: antibody complex was […]
In general terms: Immunoblotting shows a protein as a band on a membrane.

In data set [6] the test system is cellular HDACs in A549 cells. The experiment in a line: Western blotting of acetylation levels of histone H3 and α-tubulin in A549 cells. Type of data set: cell-based, human. Conditions: 50, 100 and 200 µM for 24 h. The procedure:
as §11, §12, §13, §14, §15, §16, §17

The test system of data set [7] is K562 cells. The experiment in a line: MTS cell proliferation assay, K562. In kind it is cell-based, human. The procedure: (§18) Because of the great anti-tumour potential of HDAC inhibitors, we did the antiproliferative evaluation of 18c against K562 cells, A549 cells and HepG2 cells using MTS assay as previously described. […]
(§19) The rate of cell survival under the action of test substances was evaluated by an improved MTS assay as previously described. In brief, A549 (5000 cells / well) , HepG2 (5000 cells / well), HEK293 (5000 cells / well) and K562 (1 ×10^4 cells/well) cell lines were seeded into 96-well plates in 100 µL medium. After overnight incubation, each well was added with different […]
as §10, §13
(§20) calculate and compare their selective index. […]
(§21) Unbound antibodies

The subject of data set [8] is A549 cells. Kind of data set: MTS cell proliferation assay, A549. Type of data set: cell-based, human. As to the method: as §18, §19, §10, §13, §20, §21
In general terms: Formazan colour is commonly taken as a measure of viable cells.

Data set [9] has as its system HepG2 cells. The experiment in a line: MTS cell proliferation assay, HepG2. In kind it is cell-based, human. The procedure: as §18, §19, §10, §13, §20, §21
Data set [10] deals with HEK293. The experiment in a line: MTS cell proliferation assay, HEK293 (non-cancerous kidney cell). In kind it is cell-based. As to the method:
as §18, §19, §10, §13, §20, §21

[11] abbreviates: Homo sapiens, MTS assay, 48 hours.
Where [12] appears, read: concentration range of 10–500 µM, MTS.

Turning to `O=C(CCCCCCC(=O)NCCCC[C@H](NC(=O)OCc1ccccc1)C(=O)Nc1ccccc1)NO` [Compound 18c], the IC50 in data set [1] (BOC-Ac-Lys-AMC substrate, read-out: IC50 values, HeLa nuclear extract) is 500 ± 210 nM; in data set [1] (as restated in the conclusion, read-out: IC50 value), about 500 nM; in data set [7] (setting [11]), 41.2 ± 1.73 µM; in data set [8] (setting [11]), 134 ± 2.13 µM; in [9] (setting [11]), 158 ± 2.2 µM; in data set [10] (Homo sapiens, HEK293, MTS assay, 48 hours, normal cells), over 500 µM. Besides, in [1] (compound at 100 µM, BOC-Ac-Lys-AMC substrate), the “HDAC inhibition (%)” value stood at 109.2 ± 0.5%. Besides, in data set [2], the “HDAC Inhibition (%) HDACⅠ” value amounted to 61.06±1.064%. Further, in data set [3], the “HDAC Inhibition (%) HDACⅡa” value came out at 16.65±2.690%. Besides, in data set [4], the inhibition at 1 µM worked out at 38.3 ± 1.22%. For the same compound, the “acetylation levels of histone H3 and α-tubulin” value in data set [5] and in [6] was “dose-dependent increase” throughout. Besides, the “concentration showing antiproliferative activity comparable to SAHA (1) at 10 µM” value in data set [7] (MTS) is 50 to 100 µM; in [8] (MTS), 50 to 100 µM; in [9] (MTS) it was 200 µM. Besides, the antiproliferative activity entry in [7] (setting [12]), in [8] (setting [12]) and in [9] (setting [12]) was “dose-dependent manner” throughout. The “selectivity index (SI)” value in data set [10] (normal cells (HEK293) versus tumor cells (K562, A549, HepG2) IC50s) is 3.16~12.14. In data set [10] (same concentrations (5 µM and 10 µM), MTS), the “toxicity in non-cancerous kidney cell (HEK293) compared with SAHA (1)” value is given as “less toxicity”.

For orientation: IC50 means the concentration needed to halve the response being measured. The term inhibition denotes how much of the control response was suppressed.
